The target in one data set is T1, EGFR (L858R) (Homo sapiens, UniProt P00533, L858R).
T1 construct: purchased Invitrogen Corporation PR7447A
In words: Inhibitory action on tyrosine kinase activity of mutant EGFR (L858R), Caliper. Format: biochemical. Particulars: kinase 9 nM, ATP 111 μM, polypeptide 3 μM, 60 min. The method, then: EGFR(L858R): Invitrogen Corporation, catalogue No. PR7447A
(§1) P22(polypeptide substrate): GL Biochem Ltd., catalogue No. 112393
(§2) 3.2 Formulation of Kinase Buffer: 50 mM HEPES, pH 7.5, 0.0015% Brij-35, 10 mM MgCl2, and 2 mM DTT(dithiothreitol).
(§3) 3.3 Formulation of Termination Solution: 100 mM HEPES, pH 7.5, 0.015% Brij-35, 0.2% Coating Reagent #3 (prepared by Caliper workstation), and 50 mM EDTA (ethylene diamine tetraacetic acid).
(§4) 3.4.1 Formulation of a 50-fold concentration of a compound: for example, if the final concentration of the compound for assay is 12.5 nM, 50-fold concentration is 625 nM. The 50-fold concentration of the compound working solution was subjected to a 4-fold dilution with DMSO in a 96-well plate to obtain seven diluted concentrations in total.
(§5) 3.4.2 Transferring the 5-fold concentration of compound to a reaction plate: 10 μl solution was transferred from each well of the above-mentioned 96-well plate to another 96-well plate, and then 90 μl kinase buffer was added. 5 μl solution was transferred from the above 96-well plate to a 384-well reaction plate. […]
(§6) 3.6 The substrate conversion rate data was read with Caliper. […]
(§7) Inhibition rate %=(max-conversion rate)/(max-min)x100%, wherein max refers to the conversion rate of the DMSO control, min refers to the conversion of enzyme-free control. IC50 values were determined by the inhibition curve.

For data set [1], the system named is human epidermoid carcinoma cell line A431. Kind of data set: In vitro inhibitory action on human tumor cells, A431 (MTT). Format: cell-based. The following applies: MTT assay, usually 3 days, read-out: Inhibitory activity on human epidermoid cancer cell line A431 (IC50). The method, then: Human epidermoid carcinoma cell line A431, human non-small cell lung cancer cell line HCC827, head and neck cancer cell lines Fadu and human pancreatic cancer cell line AsPC-1 were purchased from Cell Bank, Chinese Academy of Sciences.
3.2 Cell culture method: cells were cultured in the complete medium at 37° C. under 5% CO2 and saturated humidity until logarithmic growth phase, i.e., adherent cells substantially approach complete confluence, and then collected for subsequent assay. For the adherent cells, they were firstly digested with trypsin/EDTA to detach.
3.3 A certain number of cells were seeded into 96-well cell culture plates (hereinafter referred to as 96-well plates). […] Finally, total cellular protein in the wells was determined using SRB assay, or cell viability was determined with MTT assay.
3.3.1 The cell seeding concentration was determined by cell growth curve assay which completely simulates compound inhibition assay process. […]
3.4 Dilution and addition of compounds: the concentration of DMSO that can be tolerant by the cells was determined by DMSO tolerance assay, and thereby selecting the dilution and addition methods of compounds. The effects of different concentrations of DMSO on cell growth were determined by DMSO tolerance assay. […] Two methods are finally determined as follows. […]
For orientation: Tetrazolium assays rely on reduction of a dye to a coloured formazan, in cell work by metabolically active cells.

The subject of data set [2] is salmonella typhimurium TA97, TA98, TA100, TA1535, and TA102. The following applies: with or without S9; for mutagenicity on TA102 strain: doses of less than and equal to 150 μg/plate; for mutagenicity on TA97 strain: doses of less than and equal to 500 μg/plate; for mutagenicity on TA98, TA100 and TA1535 strains: doses of less than and equal to 1500 μg/plate.
Description: Direct mutagen 1: Dexon (Dima Technology Inc.; Batch No.: 456-2D)
Indirect mutagen: 2-aminoanthracene, 2-AA (Sigma-Aldrich Inc.; Batch No.: STBB1901V)
Strains: histidine auxotrophic mutants of salmonella typhimurium TA97, TA98, TA100, TA1535, and TA102 (Institute of Laboratory Animal Science, Chinese Academy of Medical Sciences) are cryopreserved in liquid nitrogen.
Bacteria suspension cryopreserved in liquid nitrogen was quickly thawed in a 37° C. water bath. 100 μL bacteria suspension was withdrawn and seeded into 20 mL nutrient broth. After static culture in the dark at 37° C. for 16 h, the bacteria suspension was taken for mutagenicity assay.
The solution was filtered through a 0.22 μm filter membrane. 1.0 mL initial filtrate was discarded during filtrating. Then the filtrated test sample solution (15 mg/mL) was gradiently diluted with DMSO to solutions having the concentrations of 5, 1.5, 0.5 and 0.15 mg/mL.
The solution was filtered through a 0.22 μm filter membrane, 1.0 mL initial filtrate was discarded during filtrating. Then the filtrated test sample solution (15 mg/mL) was gradiently diluted with sterile water for injection to solutions having the concentrations of 5, 1.5, 0.5 and 0.15 mg/mL.
Dexon: an appropriate amount of Dexon was weighed and dissolved in sterile water for injection to obtain a solution with a concentration of 250 μg/mL. The solution was used after being filtered through 0.22 μm sterile filter membrane.
The solution was used after being filtered through 0.22 μm sterile filter membrane.
2-aminoanthracene: an appropriate amount of 2-aminoanthracene was weighed and dissolved in DMSO to obtain a solution with a concentration of 30 μg/mL. The solution was used after being filtered through 0.22 μm sterile filter membrane.
The Sprague-Dawley rat liver S9 fraction used in this assay was prepared on May 18, 2012 with Batch No.: 20120518. It was stored in liquid nitrogen and the protein concentration is 20.477 mg/mL, which can be used before May 17, 2014. Sterility test and biological activity detection met the requirements of the assay.
Before use, S9 mixture was formulated under sterile conditions. The formulated volume was determined by operator according to the requirements of the assay. Other solvents were formulated in accordance with the standard operating procedures of the Centre.
0.1 mL test article or control drug solution, 0.5 mL S9 mixture or PBS (pH7.4), and 2.0 mL top medium (containing about 0.05 mM histidine, about 0.05 mM biotin, about 0.6% agar, and about 0.5% NaCl) in sequence, and 0.1 mL bacteria culture solution finally were added into glass test tubes (10 mL). The mixture was rapidly mixed uniformly on a vortex mixer and poured into the surface of the bottom medium. The top medium was spread evenly over the surface of the basal medium by slight rotation.
The plates were placed on a horizontal table until the medium were solidified. Then the plates were inverted and cultured at 37° C. for 48 h (except for the TA102 strain, which was cultured for 72 h). The plates were withdrawn to count the number of visible revertant colonies per plate. The precipitation phenomenon of the test samples was observed when loading and at the end of culture. Three plates were tested for each group under activation and non-activation conditions, respectively.
If the results meet the following one or two criteria, it would be assessed as positive.
A further data set deals with T2, EGFR (L858R/T790M) (Homo sapiens, UniProt P00533, L858R/T790M).
T2 construct: purchased Invitrogen Corporation PR8911A
T2 sequence (P00533 25-1210 T790M/L858R): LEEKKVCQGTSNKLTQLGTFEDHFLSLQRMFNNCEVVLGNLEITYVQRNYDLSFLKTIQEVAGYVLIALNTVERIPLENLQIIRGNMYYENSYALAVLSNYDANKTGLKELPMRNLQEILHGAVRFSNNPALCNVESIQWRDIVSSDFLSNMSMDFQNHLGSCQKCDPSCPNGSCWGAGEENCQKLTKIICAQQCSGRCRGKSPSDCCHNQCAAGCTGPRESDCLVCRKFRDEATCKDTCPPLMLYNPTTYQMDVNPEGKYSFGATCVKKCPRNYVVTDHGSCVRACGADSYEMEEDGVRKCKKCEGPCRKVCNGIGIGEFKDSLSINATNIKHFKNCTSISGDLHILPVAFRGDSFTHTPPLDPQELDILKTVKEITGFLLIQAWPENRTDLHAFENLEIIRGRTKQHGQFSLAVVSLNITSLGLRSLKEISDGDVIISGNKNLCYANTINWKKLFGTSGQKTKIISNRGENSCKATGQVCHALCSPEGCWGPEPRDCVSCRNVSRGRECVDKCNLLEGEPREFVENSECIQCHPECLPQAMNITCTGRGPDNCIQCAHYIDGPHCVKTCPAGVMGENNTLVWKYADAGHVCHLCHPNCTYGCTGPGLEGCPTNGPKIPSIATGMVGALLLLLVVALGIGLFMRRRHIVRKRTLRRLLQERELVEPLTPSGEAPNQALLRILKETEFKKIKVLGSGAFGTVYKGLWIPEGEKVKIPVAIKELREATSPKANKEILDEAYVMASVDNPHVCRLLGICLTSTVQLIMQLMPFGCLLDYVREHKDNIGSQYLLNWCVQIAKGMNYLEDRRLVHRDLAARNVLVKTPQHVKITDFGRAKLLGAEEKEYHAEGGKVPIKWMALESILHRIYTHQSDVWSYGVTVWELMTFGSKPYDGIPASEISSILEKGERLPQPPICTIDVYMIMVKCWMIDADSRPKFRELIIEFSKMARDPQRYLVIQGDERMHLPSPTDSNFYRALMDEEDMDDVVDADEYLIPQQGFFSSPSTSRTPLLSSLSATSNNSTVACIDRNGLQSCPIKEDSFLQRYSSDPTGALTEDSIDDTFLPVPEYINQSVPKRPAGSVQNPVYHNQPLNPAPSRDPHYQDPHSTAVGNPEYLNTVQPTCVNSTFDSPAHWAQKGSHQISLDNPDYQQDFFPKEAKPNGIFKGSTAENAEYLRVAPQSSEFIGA
Kind of data set: Inhibitory action on tyrosine kinase activity of mutant EGFR (L858R/T790M), Caliper. Particulars: kinase 10 nM, ATP 19 μM, polypeptide 3 μM, 60 min. Type of data set: biochemical. The method, then: EGFR(L858R/T790M): Invitrogen Corporation, catalogue No. PR8911A
as §1, §2, §3, §4, §5, §6, §7

The source of these data is patent publication US9840494B2, “Quinazoline derivative” (Tianjin Hemay Oncology Pharmaceutical Co., Ltd., priority 2013, dated 2017).

Where two headings read alike, the source gives them in different places.

T1 sequence (P00533 25-1210 L858R): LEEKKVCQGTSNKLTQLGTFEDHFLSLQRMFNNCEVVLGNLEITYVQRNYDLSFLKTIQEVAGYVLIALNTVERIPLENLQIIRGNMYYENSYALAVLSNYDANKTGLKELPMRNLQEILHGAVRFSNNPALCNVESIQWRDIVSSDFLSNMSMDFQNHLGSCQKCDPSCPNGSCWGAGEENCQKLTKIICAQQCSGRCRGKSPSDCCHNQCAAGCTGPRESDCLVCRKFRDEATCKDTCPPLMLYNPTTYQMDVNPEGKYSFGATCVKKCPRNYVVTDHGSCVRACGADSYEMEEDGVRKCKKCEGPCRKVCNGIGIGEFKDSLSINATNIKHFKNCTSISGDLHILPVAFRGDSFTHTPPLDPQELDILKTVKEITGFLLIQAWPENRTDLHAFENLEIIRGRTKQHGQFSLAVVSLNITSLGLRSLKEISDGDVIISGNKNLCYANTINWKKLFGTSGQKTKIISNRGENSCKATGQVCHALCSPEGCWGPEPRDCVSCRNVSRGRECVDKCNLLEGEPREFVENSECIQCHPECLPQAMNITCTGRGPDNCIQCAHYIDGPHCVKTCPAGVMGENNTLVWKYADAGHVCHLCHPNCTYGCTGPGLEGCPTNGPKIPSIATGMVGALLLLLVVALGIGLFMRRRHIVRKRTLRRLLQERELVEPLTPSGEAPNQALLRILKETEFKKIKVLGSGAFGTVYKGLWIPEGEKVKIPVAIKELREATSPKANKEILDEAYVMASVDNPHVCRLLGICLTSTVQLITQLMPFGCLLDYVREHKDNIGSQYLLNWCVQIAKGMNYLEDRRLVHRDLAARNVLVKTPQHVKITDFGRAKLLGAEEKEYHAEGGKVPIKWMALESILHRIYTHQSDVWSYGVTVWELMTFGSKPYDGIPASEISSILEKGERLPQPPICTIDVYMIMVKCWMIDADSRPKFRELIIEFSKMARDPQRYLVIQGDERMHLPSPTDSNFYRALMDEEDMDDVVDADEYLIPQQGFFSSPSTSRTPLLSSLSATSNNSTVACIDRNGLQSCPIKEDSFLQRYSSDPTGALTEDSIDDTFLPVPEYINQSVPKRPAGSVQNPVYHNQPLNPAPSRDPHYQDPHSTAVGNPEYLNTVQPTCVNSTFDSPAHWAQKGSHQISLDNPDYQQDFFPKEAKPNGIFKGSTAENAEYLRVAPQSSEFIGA

Regarding `COCCOc1cc2ncnc(Nc3ccc(F)c(Cl)c3)c2cc1NC(=O)C=C1CCN(CCOC)CC1.CS(=O)(=O)O` [Compound 3, N-[4-(3-chloro-4-fluorophenylamino)-7-(2-methoxyethoxy)quinazolin-6-yl]-2-[1-(2-methoxyethyl)piperidin-4-ylidene]acetamide dimethylsulfonate], the IC50 (usually the concentration needed to halve the response being measured) against EGFR (L858R) was 0.00045 µM. Besides, the IC50 in data set [1] came out at 0.138 µM. Besides, in data set [2], the “mutagenicity on TA102 strain” value was “no mutagenicity”; the “mutagenicity on TA97 strain” value is “no mutagenicity”; the “mutagenicity on TA98, TA100 and TA1535 strains” value was “no mutagenicity”. Also, the IC50 against EGFR (L858R/T790M) is 0.235 µM.
On EGFR (L858R), `COCCOc1cc2ncnc(Nc3ccc(F)c(Cl)c3)c2cc1NC(=O)C=C1CCN(CCOC)CC1` [Compound 1, N-[4-(3-chloro-4-fluorophenylamino)-7-(2-methoxyethoxy)quinazolin-6-yl]-2-[1-(2-methoxyethyl)piperidin-4-ylidene]acetamide] yielded an IC50 of 0.0004 µM. Moreover, the half-inhibitory concentration (IC50) in data set [1] (Homo sapiens, A-431, 72 h) amounted to 0.125 µM. In addition, in data set [2], the “mutagenicity on TA102 strain” value is recorded as “no mutagenicity”; the “mutagenicity on TA97 strain” value is listed as “no mutagenicity”; the “mutagenicity on TA98, TA100 and TA1535 strains” value is on record as “no mutagenicity”. In addition, it took 0.266 µM to reach half-maximal inhibition at EGFR (L858R/T790M) (IC50).
